Measurements as given in patent US12391679B2, “Benzamide-substituted bicyclic imidazo- and pyrazolo-fused -pyridine, -pyrimide, and -pyridazine compounds for treatment of inflammatory diseases” (ONCO3R Therapeutics BV, priority 2019, dated 2025).

Experiments:
SIK1 = target: T1, SIK1 (Homo sapiens, UniProt P57059); assay: ADP-Glo kinase assay, SIK1; format: biochemical
T1 construct: purchased Carna Biosciences 02-131
Summary of the method: (§1)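 ADP-Glo format, luminescent. Room-temperature kinase reaction lasting 120 min, followed by ATP removal (40 min) and ADP detection (30 min); 10 μM staurosporine serves as full-inhibition control, 1% DMSO as uninhibited control.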

SIK2 = target: T2, SIK2 (Homo sapiens, UniProt Q9H0K1); assay: ADP-Glo kinase assay, SIK2; format: biochemical
T2 construct: purchased ThermoFisher Scientific PV4792
Summary of the method: as §1

[1] = tested on: LPS-induced TNFα in monocyte-derived macrophages; assay: MdM assay: LPS-triggered TNFα (ELISA); format: cell-based, human; settings: Macrophage; human MdM; LPS 200 ng/mL; supernatant after 20 h; inhibition of TNFα; read-out: TNFα EC50
Summary of the method: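 TNFα secretion quantified by streptavidin-HRP/luminol sandwich ELISA in supernatants collected 20 h after LPS (200 ng/mL). Macrophages derived from magnetically isolated human CD14+ monocytes were used at day 10, with compound added 1 h before LPS; final DMSO 0.2%.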

T1 sequence (P57059 whole entry): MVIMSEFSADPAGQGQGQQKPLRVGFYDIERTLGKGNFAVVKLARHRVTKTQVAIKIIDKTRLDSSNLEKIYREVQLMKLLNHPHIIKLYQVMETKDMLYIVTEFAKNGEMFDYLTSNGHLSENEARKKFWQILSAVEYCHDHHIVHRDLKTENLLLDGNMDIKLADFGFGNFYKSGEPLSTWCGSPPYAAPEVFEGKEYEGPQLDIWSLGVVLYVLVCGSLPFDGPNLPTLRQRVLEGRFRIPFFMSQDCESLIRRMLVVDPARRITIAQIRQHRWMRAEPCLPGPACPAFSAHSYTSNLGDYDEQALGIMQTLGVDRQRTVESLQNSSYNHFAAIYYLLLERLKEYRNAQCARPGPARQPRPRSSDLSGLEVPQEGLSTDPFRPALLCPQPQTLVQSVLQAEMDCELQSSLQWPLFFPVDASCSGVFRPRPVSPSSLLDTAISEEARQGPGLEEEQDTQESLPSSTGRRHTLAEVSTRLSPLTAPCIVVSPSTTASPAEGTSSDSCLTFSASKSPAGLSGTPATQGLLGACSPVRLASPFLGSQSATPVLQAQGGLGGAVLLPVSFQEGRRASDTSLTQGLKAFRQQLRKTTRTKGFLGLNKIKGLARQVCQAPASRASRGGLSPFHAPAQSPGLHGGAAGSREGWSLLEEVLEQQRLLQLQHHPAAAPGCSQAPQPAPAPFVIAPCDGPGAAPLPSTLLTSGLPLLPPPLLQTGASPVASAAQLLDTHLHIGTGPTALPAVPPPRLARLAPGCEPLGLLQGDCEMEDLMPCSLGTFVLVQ
T2 sequence (Q9H0K1 whole entry): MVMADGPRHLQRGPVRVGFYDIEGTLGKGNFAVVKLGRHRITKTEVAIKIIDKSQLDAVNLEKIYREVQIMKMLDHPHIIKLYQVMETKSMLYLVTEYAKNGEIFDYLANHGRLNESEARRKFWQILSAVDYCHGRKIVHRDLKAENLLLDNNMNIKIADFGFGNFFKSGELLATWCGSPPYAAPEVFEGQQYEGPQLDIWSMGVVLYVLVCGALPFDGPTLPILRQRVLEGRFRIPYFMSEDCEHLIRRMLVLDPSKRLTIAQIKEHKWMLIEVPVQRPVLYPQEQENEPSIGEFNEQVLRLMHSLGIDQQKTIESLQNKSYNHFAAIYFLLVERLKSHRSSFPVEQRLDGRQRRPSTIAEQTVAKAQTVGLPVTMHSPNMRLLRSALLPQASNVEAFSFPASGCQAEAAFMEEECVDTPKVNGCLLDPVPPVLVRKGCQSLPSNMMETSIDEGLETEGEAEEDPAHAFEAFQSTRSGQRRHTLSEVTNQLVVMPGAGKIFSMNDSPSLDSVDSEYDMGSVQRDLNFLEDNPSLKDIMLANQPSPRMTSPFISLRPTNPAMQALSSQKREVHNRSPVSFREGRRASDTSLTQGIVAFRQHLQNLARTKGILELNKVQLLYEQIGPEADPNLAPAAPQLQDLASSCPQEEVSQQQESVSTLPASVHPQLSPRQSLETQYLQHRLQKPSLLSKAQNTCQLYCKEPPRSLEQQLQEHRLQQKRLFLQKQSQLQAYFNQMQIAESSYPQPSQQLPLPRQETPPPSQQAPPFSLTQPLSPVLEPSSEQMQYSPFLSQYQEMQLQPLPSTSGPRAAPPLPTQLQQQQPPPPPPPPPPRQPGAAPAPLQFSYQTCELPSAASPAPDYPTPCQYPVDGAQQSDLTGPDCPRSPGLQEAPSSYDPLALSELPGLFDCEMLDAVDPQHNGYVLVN

Question: Which IC50 (SIK1) does the source give for COc1cc(-c2cnc3cc(C(F)(F)CO)ccn23)cc(OC(F)F)c1C(=O)NC1CC1 [Cpd 136, N-cyclopropyl-4-[7-(1,1-difluoro-2-hydroxy-ethyl)imidazo[1,2-a]pyridin-3-yl]-2-(difluoromethoxy)-6-methoxy-benzamide] here?
Answer: Its IC50 is greater than 0.5 µM.

Question: And the IC50 (SIK2)?
Answer: The IC50 was 0.1 to 0.5 µM.

Question: And the EC50 [1]?
Answer: Its EC50 is 0.1 to 1 µM.

Question: What does the source list for COc1cc(-c2cnc3cc(C(C)(C)C#N)ccn23)cc(OC(F)F)c1C(=O)N1CC(C#N)C1 [Cpd 77, 1-[4-[7-(1-cyano-1-methyl-ethyl)imidazo[1,2-a]pyridin-3-yl]-2-(difluoromethoxy)-6-methoxy-benzoyl]azetidine-3-carbonitrile]?
Answer: IC50 (SIK1): > 0.5 µM; IC50 (SIK2): > 0.5 µM; EC50 [1]: 0.1 to 1 µM

Question: How did the IC50 (SIK1) turn out when COc1cc(-c2cnc3cc(C4COCCN4C)ccn23)cc(OC(F)F)c1C(=O)NC1CC1 (stereo not drawn) [Cpd 193, N-cyclopropyl-2-(difluoromethoxy)-6-methoxy-4-[7-(4-methylmorpholin-3-yl)imidazo[1,2-a]pyridin-3-yl]benzamide] was run?
Answer: Its IC50 is greater than 0.5 µM.

Question: What about the IC50 (SIK2) of the same molecule?
Answer: Its IC50 is greater than 0.5 µM.

Question: What about the EC50 [1] of the same molecule?
Answer: The EC50 was 1 to 5 µM.

Question: Which results are given for COc1cc(-c2cnc3cc(C(C)(C)O)ccn23)cc(OC(F)F)c1C(=O)N[C@@H]1C[C@@H]1F [Cpd 211, 2-(difluoromethoxy)-N-[(1R,2S)-2-fluorocyclopropyl]-4-[7-(1-hydroxy-1-methyl-ethyl)imidazo[1,2-a]pyridin-3-yl]-6-methoxy-benzamide]?
Answer: IC50 (SIK1): > 0.5 µM; IC50 (SIK2): 0.1 to 0.5 µM; EC50 [1]: 0.1 to 1 µM

Question: With COc1cc(-c2cnn3cc(C4COC4)ccc23)cc(OC(F)F)c1C(=O)NC1CC1 [Cpd 216, N-cyclopropyl-2-(difluoromethoxy)-6-methoxy-4-[6-(oxetan-3-yl)pyrazolo[1,5-a]pyridin-3-yl]benzamide] as the molecule, how does the IC50 (SIK1) read?
Answer: Its IC50 is 0.1 to 0.5 µM.

Question: And the IC50 (SIK2)?
Answer: The IC50 was 0.1 to 0.5 µM.

Question: And the EC50 [1]?
Answer: The EC50 was 0.1 to 1 µM.

Question: Which results are given for COc1cc(-c2cnn3cc(C4(C#N)CC4)ccc23)cc(OC(F)F)c1C(=O)N[C@@H]1C[C@@H]1F [Cpd 235, 4-[6-(1-cyanocyclopropyl)pyrazolo[1,5-a]pyridin-3-yl]-2-(difluoromethoxy)-N-[(1R,2S)-2-fluorocyclopropyl]-6-methoxy-benzamide]?
Answer: IC50 (SIK1): 0.1 to 0.5 µM; IC50 (SIK2): 0.01 to 0.1 µM; EC50 [1]: 0.1 to 1 µM

Question: Which IC50 (SIK1) does the source give for COc1cc(-c2cnn3cc(C4(C#N)CCOCC4)ccc23)cc(OC(F)F)c1C(=O)N[C@@H]1C[C@@H]1F [Cpd 243, 4-[6-(4-cyanotetrahydropyran-4-yl)pyrazolo[1,5-a]pyridin-3-yl]-2-(difluoromethoxy)-N-[(1R,2S)-2-fluorocyclopropyl]-6-methoxy-benzamide] here?
Answer: Its IC50 is greater than 0.5 µM.

Question: What about the IC50 (SIK2) of the same molecule?
Answer: The IC50 was greater than 0.5 µM.

Question: What about the EC50 [1] of the same molecule?
Answer: Its EC50 is 0.1 to 1 µM.

Question: How did the IC50 (SIK1) turn out when COc1cc(-c2cnn3cc(C(C)(C)C#N)ccc23)cc(OC)c1C(=O)N[C@@H]1C[C@@H]1F [Cpd 245, 4-[6-(1-cyano-1-methyl-ethyl)pyrazolo[1,5-a]pyridin-3-yl]-N-[(1R,2S)-2-fluorocyclopropyl]-2,6-dimethoxy-benzamide] was run?
Answer: The IC50 was greater than 0.5 µM.

Question: And the IC50 (SIK2)?
Answer: Its IC50 is greater than 0.5 µM.

Question: What about the EC50 [1] of the same molecule?
Answer: The EC50 was 0.1 to 1 µM.

Question: COc1cc(-c2cnc3cc(C4(C#N)CCOCC4)ccn23)cc(OC(F)F)c1C(=O)NC1CC1 [Cpd 116, 4-[7-(4-cyanotetrahydropyran-4-yl)imidazo[1,2-a]pyridin-3-yl]-N-cyclopropyl-2-(difluoromethoxy)-6-methoxy-benzamide] was tested. Which IC50 (SIK1) did it give?
Answer: Its IC50 is greater than 0.5 µM.

Question: And the IC50 (SIK2)?
Answer: The IC50 was greater than 0.5 µM.

Question: And the EC50 [1]?
Answer: The EC50 was 1 to 5 µM.

Question: Which results are given for COc1cc(-c2cnc3cc(C4CCOCC4)c(F)cn23)cc(OC(F)F)c1C(=O)NC1CC1 [Cpd 166, N-cyclopropyl-2-(difluoromethoxy)-4-(6-fluoro-7-tetrahydropyran-4-yl-imidazo[1,2-a]pyridin-3-yl)-6-methoxy-benzamide]?
Answer: IC50 (SIK1): > 0.5 µM; IC50 (SIK2): 0.1 to 0.5 µM; EC50 [1]: 0.1 to 1 µM

Question: What does the source list for COc1cc(-c2cnc3cc(C(C)N4CCCCC4)ccn23)cc(OC(F)F)c1C(=O)NC1CC1 (stereo not drawn) [Cpd 146, N-cyclopropyl-2-(difluoromethoxy)-6-methoxy-4-[7-[1-(1-piperidyl)ethyl]imidazo[1,2-a]pyridin-3-yl]benzamide]?
Answer: IC50 (SIK1): > 0.5 µM; IC50 (SIK2): > 0.5 µM; EC50 [1]: 1 to 5 µM

Question: Which results are given for COc1cc(-c2cnc3cc(C(C)(C)C#N)ccn23)cc(OC)c1C(=O)NC1CC1 [Cpd 28, 4-[7-(1-cyano-1-methyl-ethyl)imidazo[1,2-a]pyridin-3-yl]-N-cyclopropyl-2,6-dimethoxy-benzamide]?
Answer: IC50 (SIK1): > 0.5 µM; IC50 (SIK2): > 0.5 µM; EC50 [1]: 0.1 to 1 µM

Question: For COc1cc(-c2cnc3cc(C4CCCN(C(=O)OC(C)(C)C)C4)ccn23)cc(OC(F)F)c1C(=O)NC1CC1 (stereo not drawn) [Cpd 64, tert-butyl 3-[3-[4-(cyclopropylcarbamoyl)-3-(difluoromethoxy)-5-methoxy-phenyl]imidazo[1,2-a]pyridin-7-yl]piperidine-1-carboxylate], which IC50 (SIK1) is on record?
Answer: Its IC50 is greater than 0.5 µM.

Question: And the IC50 (SIK2)?
Answer: The IC50 was 0.1 to 0.5 µM.

Question: And the EC50 [1]?
Answer: Its EC50 is 0.1 to 1 µM.

Question: Which results are given for COc1cc(-c2cnc3cc(C4COC4)ccn23)cc(OC(F)F)c1C(=O)N[C@@H]1C[C@@H]1F [Cpd 206, 2-(difluoromethoxy)-N-[(1R,2S)-2-fluorocyclopropyl]-6-methoxy-4-[7-(oxetan-3-yl)imidazo[1,2-a]pyridin-3-yl]benzamide]?
Answer: IC50 (SIK1): 0.1 to 0.5 µM; IC50 (SIK2): 0.01 to 0.1 µM; EC50 [1]: 0.1 to 1 µM
